Among the data in patent US10799507B2, “5-(7H-pyrrolo[2,3-d]pyrimidin-4-yl)-5-azaspiro[2.5]octane-8-carboxylic acid derivatives as novel JAK kinase inhibitors” (LEO Pharma A/S, priority 2017, dated 2020) are EC50 and CLint scaled values, retold here.

For one series, the target named is JAK1 (Homo sapiens (Human), UniProt P23458). The series can be described thus: JAK kinase assay (HTRF), JAK1. Format: biochemical. The note with it: catalytic domain, ATP at Km (7 μM). A digest of the protocol: (§1)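 Catalytic-domain human JAK1 (GST-tagged, aa 850-1154) or His-tagged JAK2, baculovirus-expressed, phosphorylated 1 µM biotinylated TK peptide at Km ATP (JAK1 7 µM, 10 mM MgCl2, 50 nM SEB; JAK2 4 µM, 5 mM MgCl2) in pH 7.0 Hepes, 20-30 min RT. EDTA stop; overnight streptavidin-XL665/cryptate HTRF read.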
Background: Time-resolved FRET reads energy transfer from a long-lived donor to a nearby acceptor.

A short description of series [1]: in vitro metabolic stability in human liver microsomes. It counts as in vitro ADME. The following applies: human, liver microsomes, 0.5 μM compound, 0.5 mg/mL microsomes, NADPH, 40 min, 37° C.; read-out: Human liver microsome Clapp (apparent intrinsic clearance). A digest of the protocol: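 Compounds at 0.5 μM incubated in duplicate with human liver microsomes (0.5 mg/mL), phosphate buffer and NADPH at 37 °C for 40 min, sampled at 0, 5, 10, 20, 40 min into cold acetonitrile. LC-TOF-MS depletion gave elimination rate constant, from which apparent intrinsic clearance (Clapp) was calculated.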
A general note: Liver microsomes are vesicles of endoplasmic reticulum, rich in cytochrome P450 enzymes.

The next series deals with JAK3 (Homo sapiens (Human), UniProt P52333). In words: JAK kinase assay (HTRF), JAK3. Format: biochemical. The following applies: catalytic domain, ATP at Km (2 μM). The method, boiled down: (§2)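 HTRF read-out of biotinylated TK peptide phosphorylation (1 μM) after a 20-30 min RT reaction in pH 7.0 Hepes buffer with 5 mM MgCl2 and 0.75% DMSO. JAK3 (His-tagged catalytic domain) used 2 μM ATP; TYK2 (GST-tagged, aa 871-1187) used 13 μM ATP plus 50 nM SEB, each at ATP Km.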

A further series has as its target JAK2 (Homo sapiens (Human), UniProt O60674). In words: JAK kinase assay (HTRF), JAK2. Format: biochemical. The following applies: catalytic domain, ATP at Km (4 μM). The method, boiled down:
as §1

For the next series, the target named is TYK2 (Homo sapiens (Human), UniProt P29597). The series can be described thus: JAK kinase assay (HTRF), TYK2. Format: biochemical. The note with it: catalytic domain, ATP at Km (13 μM). The method, boiled down: as §2

The structures appear in SMILES notation. Bounds are passed on as bounds.

Chain of JAK2 (O60674 849-1124): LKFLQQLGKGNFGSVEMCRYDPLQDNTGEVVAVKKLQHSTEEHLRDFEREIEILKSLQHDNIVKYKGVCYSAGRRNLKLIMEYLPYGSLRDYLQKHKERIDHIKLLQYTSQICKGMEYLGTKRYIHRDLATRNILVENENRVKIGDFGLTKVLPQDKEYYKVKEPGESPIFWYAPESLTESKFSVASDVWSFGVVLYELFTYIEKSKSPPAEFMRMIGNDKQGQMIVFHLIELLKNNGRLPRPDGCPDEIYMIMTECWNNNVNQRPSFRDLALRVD
Chain of JAK3 (P52333 822-1111): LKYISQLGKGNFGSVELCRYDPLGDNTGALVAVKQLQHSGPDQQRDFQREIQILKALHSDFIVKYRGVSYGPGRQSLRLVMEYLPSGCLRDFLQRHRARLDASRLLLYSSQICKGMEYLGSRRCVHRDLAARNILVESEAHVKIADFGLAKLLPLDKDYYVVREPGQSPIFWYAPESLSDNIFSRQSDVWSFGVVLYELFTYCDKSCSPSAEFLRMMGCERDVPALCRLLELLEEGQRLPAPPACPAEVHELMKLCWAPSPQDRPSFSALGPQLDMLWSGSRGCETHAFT
Chain of TYK2 (P29597 871-1187): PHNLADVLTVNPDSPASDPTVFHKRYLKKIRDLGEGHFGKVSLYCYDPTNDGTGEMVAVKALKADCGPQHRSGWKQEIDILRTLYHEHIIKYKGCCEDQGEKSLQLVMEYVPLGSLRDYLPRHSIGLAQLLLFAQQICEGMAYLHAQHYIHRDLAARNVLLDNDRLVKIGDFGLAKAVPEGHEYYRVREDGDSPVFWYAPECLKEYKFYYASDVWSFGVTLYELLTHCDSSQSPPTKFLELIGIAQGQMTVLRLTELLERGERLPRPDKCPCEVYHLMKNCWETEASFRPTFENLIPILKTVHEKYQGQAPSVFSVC
Chain of JAK1 (P23458 850-1154): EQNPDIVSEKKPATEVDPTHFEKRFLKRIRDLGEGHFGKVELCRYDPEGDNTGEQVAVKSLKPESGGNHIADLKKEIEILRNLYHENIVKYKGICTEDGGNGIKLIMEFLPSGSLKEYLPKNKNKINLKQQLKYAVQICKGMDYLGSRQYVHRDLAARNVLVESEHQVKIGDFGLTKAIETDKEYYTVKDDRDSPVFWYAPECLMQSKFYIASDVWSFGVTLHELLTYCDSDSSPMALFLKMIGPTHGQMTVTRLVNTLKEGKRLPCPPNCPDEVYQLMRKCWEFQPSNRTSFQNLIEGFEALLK

Usually EC50 stands for the concentration giving half of the maximal effect. Read a high EC50 as a less potent agent. With `N#Cc1ccc([C@@H](O)CNC(=O)[C@H]2CCN(c3ncnc4[nH]ccc34)CC23CC3)cc1` [Example 29, (8S)-N-[(2R)-2-(4-cyanophenyl)-2-hydroxy-ethyl]-5-(7H-pyrrolo[2,3-d]pyrimidin-4-yl)-5-azaspiro[2.5]octane-8-carboxamide], the EC50 at JAK1 was 1.4 nM; at JAK3, 6.5 nM; on JAK2, 2.9 nM; at TYK2 it was 40.4 nM. In series [1], the CLint scaled at 0.5 μM worked out at 115 mL/min/kg.

As to `N#CC1CC(CNC(=O)C2CCN(c3ncnc4[nH]ccc34)CC23CC3)C1` (stereo not drawn) [Example 59, N-[(3-cyanocyclobutyl)methyl]-5-(7H-pyrrolo[2,3-d]pyrimidin-4-yl)-5-azaspiro[2.5]octane-8-carboxamide], the EC50 was 4.2 nM at JAK1, 24.5 nM at JAK3, 12.1 nM at JAK2 and 322 nM on TYK2. Moreover, the CLint scaled at 0.5 μM in series [1] came to 28 mL/min/kg.

On to `N#Cc1ccc([C@@H](O)CNC(=O)[C@H]2CCN(c3ncnc4[nH]ccc34)CC23CC3)nc1` [Example 36, (8S)-N-[(2S)-2-(5-cyano-2-pyridyl)-2-hydroxy-ethyl]-5-(7H-pyrrolo[2,3-d]pyrimidin-4-yl)-5-azaspiro[2.5]octane-8-carboxamide], for which the EC50 amounted to 2 nM on JAK1, 25.2 nM at JAK3, 8.7 nM at JAK2 and 70.5 nM at TYK2. In addition, the CLint scaled at 0.5 μM in series [1] was 72 mL/min/kg.

Turning to `O=C(N[C@@H](CO)[C@H](O)c1ccc(F)cn1)[C@H]1CCN(c2ncnc3[nH]ccc23)CC12CC2` (single isomer, unassigned) [Example 30], the EC50 turned out to be 1.4 nM on JAK1, 27.1 nM on JAK3, 2.4 nM at JAK2 and 30.5 nM at TYK2. Further, the CLint scaled at 0.5 μM in series [1] worked out at 50 mL/min/kg.

As to `N#Cc1ccc([C@@H](CO)NC(=O)C2CCN(c3ncnc4[nH]ccc34)CC23CC3)cc1` (stereo partly drawn) [Example 94, N-[(1S)-1-(4-cyanophenyl)-2-hydroxy-ethyl]-5-(7H-pyrrolo[2,3-d]pyrimidin-4-yl)-5-azaspiro[2.5]octane-8-carboxamide], the EC50 came to 8.6 nM at JAK1, 91.1 nM on JAK3, 53.7 nM at JAK2 and 967 nM on TYK2. Besides, the CLint scaled at 0.5 μM in series [1] worked out at 23 mL/min/kg.

With `C[C@H](NC(=O)[C@H]1CCN(c2ncnc3[nH]ccc23)CC12CC2)c1ccc(C#N)cc1` [Example 22, (8S)-N-[(1S)-1-(4-cyanophenyl)ethyl]-5-(7H-pyrrolo[2,3-d]pyrimidin-4-yl)-5-azaspiro[2.5]octane-8-carboxamide], the EC50 at JAK1 was 1.2 nM; on JAK3, 7.1 nM; on JAK2 it was 3.2 nM; on TYK2, 43.9 nM. In addition, in series [1], the CLint scaled at 0.5 μM was 123 mL/min/kg.

`O=C(N[C@H](CO)c1ccccc1)C1CCN(c2ncnc3[nH]ccc23)CC12CC2` (stereo partly drawn) [Example 127, N-[(1S)-2-hydroxy-1-phenyl-ethyl]-5-(7H-pyrrolo[2,3-d]pyrimidin-4-yl)-5-azaspiro[2.5]octane-8-carboxamide]: the concentration for a half-maximal effect (EC50) at JAK1 was determined as 19.9 nM; at JAK3, 68.1 nM; at JAK2, 52.1 nM; on TYK2, 1100 nM. Besides, the CLint scaled at 0.5 μM in series [1] was 44 mL/min/kg.

As to `N#Cc1ccc(CNC(=O)[C@H]2CCN(c3ncnc4[nH]ccc34)CC23CC3)cc1F` [Example 16, (8S)-N-[(4-cyano-3-fluoro-phenyl)methyl]-5-(7H-pyrrolo[2,3-d]pyrimidin-4-yl)-5-azaspiro[2.5]octane-8-carboxamide], the EC50 is 1 nM on JAK1, 7.1 nM at JAK3, 3.6 nM at JAK2 and 44.3 nM at TYK2. Also, in series [1], the CLint scaled at 0.5 μM was 180 mL/min/kg.

Consider `O=C(NCC1CCCC1)C1CCN(c2ncnc3[nH]ccc23)CC12CC2` (stereo not drawn) [Example 82, N-(cyclopentylmethyl)-5-(7H-pyrrolo[2,3-d]pyrimidin-4-yl)-5-azaspiro[2.5]octane-8-carboxamide], for which the EC50 on JAK1 was 6.8 nM; on JAK3 it was 38.7 nM; on JAK2, 11.5 nM; at TYK2 it was 400 nM. The CLint scaled at 0.5 μM in series [1] came out at 198 mL/min/kg.

As for `O=C(OCC1(CO)CCC1)[C@H]1CCN(c2ncnc3[nH]ccc23)CC12CC2` [Example 157, [1-(hydroxymethyl)cyclobutyl]methyl (8S)-5-(7H-pyrrolo[2,3-d]pyrimidin-4-yl)-5-azaspiro[2.5]octane-8-carboxylate], the EC50 at JAK1 was determined as 0.8 nM; at JAK3, 6.6 nM; at JAK2, 2.1 nM; at TYK2 it was 9 nM. Besides, in series [1], the CLint scaled at 0.5 μM was above 200 mL/min/kg.

Consider `O=C(OCC1(CO)CC(F)(F)C1)[C@H]1CCN(c2ncnc3[nH]ccc23)CC12CC2` [Example 160, [3,3-difluoro-1-(hydroxymethyl)cyclobutyl]methyl (8S)-5-(7H-pyrrolo[2,3-d]pyrimidin-4-yl)-5-azaspiro[2.5]octane-8-carboxylate], for which the EC50 on JAK1 amounted to 0.3 nM; at JAK3 it was 1.8 nM; on JAK2 it was 0.8 nM; on TYK2, 3.7 nM. For the same compound, the CLint scaled at 0.5 μM in series [1] was 121 mL/min/kg.

Consider `N#CCC1(COC(=O)[C@H]2CCN(c3ncnc4[nH]ccc34)CC23CC3)CC1` [Example 163, [1-(cyanomethyl)cyclopropyl]methyl (8S)-5-(7H-pyrrolo[2,3-d]pyrimidin-4-yl)-5-azaspiro[2.5]octane-8-carboxylate], for which the EC50 is 3.1 nM on JAK1, 13 nM on JAK3, 3.8 nM on JAK2 and 25 nM at TYK2. For the same compound, the CLint scaled at 0.5 μM in series [1] was above 200 mL/min/kg.

For `O=C(N[C@@H](CO)[C@@H](O)c1ccc(F)cn1)[C@H]1CCN(c2ncnc3[nH]ccc23)CC12CC2` [Example 105, (8S)-N-[(1S,2R)-2-(5-fluoro-2-pyridyl)-2-hydroxy-1-(hydroxymethyl)ethyl]-5-(7H-pyrrolo[2,3-d]pyrimidin-4-yl)-5-azaspiro[2.5]octane-8-carboxamide], the EC50 on JAK1 stood at 10.2 nM; on JAK3, 56 nM; at JAK2, 11.2 nM; on TYK2, 153 nM. For the same compound, the CLint scaled at 0.5 μM in series [1] was 15 mL/min/kg.

As for `C[C@](CO)(NC(=O)[C@H]1CCN(c2ncnc3[nH]ccc23)CC12CC2)c1ccc(C#N)cc1` [Example 27, (8S)-N-[(1S)-1-(4-cyanophenyl)-2-hydroxy-1-methyl-ethyl]-5-(7H-pyrrolo[2,3-d]pyrimidin-4-yl)-5-azaspiro[2.5]octane-8-carboxamide], the EC50 is 1.4 nM on JAK1, 7 nM at JAK3, 3.2 nM at JAK2 and 44.2 nM on TYK2. For the same compound, in series [1], the CLint scaled at 0.5 μM is 61 mL/min/kg.

`O=C(OCC1(CO)CS(=O)(=O)C1)[C@H]1CCN(c2ncnc3[nH]ccc23)CC12CC2` [Example 162, [3-(hydroxymethyl)-1,1-dioxo-thietan-3-yl]methyl (8S)-5-(7H-pyrrolo[2,3-d]pyrimidin-4-yl)-5-azaspiro[2.5]octane-8-carboxylate]: the EC50 on JAK1 came to 0.2 nM; on JAK3, 1.5 nM; at JAK2 it was 0.6 nM; at TYK2 it was 3.6 nM. Moreover, the CLint scaled at 0.5 μM in series [1] is below 10 mL/min/kg.

In the case of `C[C@H](NC(=O)[C@H]1CCN(c2ncnc3[nH]ccc23)CC12CC2)[C@H](O)c1ccc(F)cc1` [Example 45, (8S)-N-[(1S,2R)-2-(4-fluorophenyl)-2-hydroxy-1-methyl-ethyl]-5-(7H-pyrrolo[2,3-d]pyrimidin-4-yl)-5-azaspiro[2.5]octane-8-carboxamide], the EC50 was 3.1 nM on JAK1, 15.7 nM on JAK3, 4.6 nM on JAK2 and 37.9 nM at TYK2. Moreover, the CLint scaled at 0.5 μM in series [1] was above 200 mL/min/kg.

In the case of `Cc1cc([C@H](O)[C@H](C)NC(=O)[C@H]2CCN(c3ncnc4[nH]ccc34)CC23CC3)ccc1F` [Example 40, (8S)-N-[(1S,2S)-2-(4-fluoro-3-methyl-phenyl)-2-hydroxy-1-methyl-ethyl]-5-(7H-pyrrolo[2,3-d]pyrimidin-4-yl)-5-azaspiro[2.5]octane-8-carboxamide], the EC50 at JAK1 is 2.4 nM; at JAK3 it was 39.5 nM; at JAK2, 8.3 nM; at TYK2, 40.6 nM. The CLint scaled at 0.5 μM in series [1] was above 200 mL/min/kg.

Take `C[C@H](NC(=O)[C@H]1CCN(c2ncnc3[nH]ccc23)CC12CC2)[C@@H](O)C1CCCCC1` [Example 3, (8S)-N-[(1S,2S)-2-cyclohexyl-2-hydroxy-1-methyl-ethyl]-5-(7H-pyrrolo[2,3-d]pyrimidin-4-yl)-5-azaspiro[2.5]octane-8-carboxamide]: the EC50 was 0.5 nM on JAK1, 3.4 nM at JAK3, 1.1 nM at JAK2 and 6.2 nM on TYK2. Also, in series [1], the CLint scaled at 0.5 μM is above 200 mL/min/kg.
